Source: US6403788B1, “Non-genotoxic metalloporphyrins as synthetic catalytic scavengers of reactive oxygen species” (Eukarion, Inc., priority 2000, dated 2002)

Columns and labels:
[1] = Catalase activity, hydrogen peroxide consumed at 20 minutes; format: biochemical; conditions: over 20 minutes; 10 μM compound, 100 μM hydrogen peroxide, 40 mM sodium phosphate pH 7.4
Description: (§1) Catalase activity was measured by incubating the sample compound with hydrogen peroxide and determining the amount of hydrogen peroxide remaining after a period of time using a colorimetric peroxidase-coupled assay method. 10 μM sample compound and 100 μM hydrogen peroxide in 40 mM sodium phosphate pH 7.4 were incubated together at ambient temperature in a multi-well plate. After the desired reaction period had elapsed, 20 μl of peroxidase/ABTS reagent was added (peroxidase/ABTS reagent contained 100 μl of 50 mM Na phosphate, pH 7.4, 1 mg horseradish peroxidase (1310 U/mg) and […]). After five minutes, absorbance at 750 nm was determined. The amount of hydrogen peroxide remaining was calculated based on a standard curve. To compare rates of catalase reaction, the amount of hydrogen peroxide consumed at 20 minutes was determined (See table III). It was also of interest to determine the total number of turnovers completed by the compound before inactivation by hydrogen peroxide. This was assayed under similar conditions, except that 15.8 μM compound was combined with 1582 μM hydrogen peroxide in 5 mM Na phosphate, pH 7.4. Reactions were allowed to proceed to completion and then the amount of hydrogen peroxide remaining was determined as described above. Results showing […] in the turnover assay (nmoles hydrogen peroxide per nmole compound) are also shown in Table III.

[2] = system: ΦX 174 DNA Plasmid (Form I); test: Cleavage of ΦX 174 DNA plasmid (form I), compound alone or activated with KHSO5; format: biochemical, phage ΦX 174; conditions: for S (single-strand breaks per DNA molecule) / form % I / form % II / form % III: DNA 3.5 nM, compound 10 nM
Description: The DNA cleavage activity was quantified in terms of number of single-strand breaks per DNA molecule according to the equation […], Io=% form I (supercoiled DNA) in the DNA control, and I=% form I in the experiment (see Bernadou et al, Biochemistry, 28: 7268-7275, (1989)). This assay is very sensitive and is able to detect very low levels of DNA activity. S values less than S=1.0 are indicative of very low DNA cleavage activity when the compounds are at a concentration of equal to or less than 1000 nM and KHSO5 is present at a concentration of equal to or less than 100 μM.
ΦX 174 DNA digestion conditions for standard experiments were as follows: commercially available DNA was diluted to 50 μg/mL in phosphate buffer (10 mM, pH 7.5). The reaction involved 5 μL of ΦX 174 DNA (50 μg/mL, 74.8 μM in base pairs), 5 μL of 40 mM phosphate buffer, pH 7.5 with 400 mM NaCl, 5 μL of metalloporphyrin in double-distilled water or 5 μL of iron-bleomycin complex in double-distilled water, and 5 μL of KHSO5 or 5 μL of H2O2 or 5 μL of ascorbate in double-distilled water. Preincubation of DNA and metalloporphyrins or iron-bleomycin complex was performed for about 15 min. The digestion time in the presence of KHSO5 was 10 min, of H2O2 was 30 min and of ascorbate was 30 min at 20° C. DNA cleavage was monitored by agarose gel electrophoresis. Reactions with KHSO5 were first quenched by 2 μL of 100 mM Hepes buffer, pH 8. In all cases, reactions were quenched by 5 μL of a stopping reagent. The stopping reagent consisted of 250 mM Hepes buffer, pH 7.4, containing 75% glycerol and 0.05% bromophenol blue. Reaction mixtures were then run in 0.8% agarose slab horizontal gel containing ethidium bromide […], at constant current (25 mA for 15h), in 89 mM Tris-borate buffer and 2.5 mM EDTA pH 8.3. Bands were located by WV light (254 nm), photographed, and quantitated by microdensitometry. The correction coefficient 1.47±0.30 was used for decreased stainability of form I DNA vs form II DNA and form III DNA.

[3] = Peroxidase activity, ABTS oxidation; format: biochemical; conditions: 10 μM compound, 200 μM hydrogen peroxide, 500 μM ABTS, pH 8.1, 740 nm
Description: Peroxidase activity was measured by incubating 10 μM compound, 200 μM hydrogen peroxide and 500 μM ABTS in 50 mM sodium phosphate, pH 8.1. The rate of ABTS oxidation was monitored at 740 nm and initial rates (change in absorbance per min.) determined.

[4] = system: ΦX 174 DNA Plasmid (Form I); conditions: literature (Bernadou 1989, Vialas 2000, Meunier 1992); cited from earlier work
[5] = Superoxide dismutase activity, xanthine-xanthine oxidase / cytochrome C; format: biochemical; conditions: reciprocal of IC50; xanthine 60 μM, xanthine oxidase 0.009 units/ml, cytochrome C 27.8 μM
Description: Superoxide Dismutase Activity was measured by incubating the compound with a superoxide generating system (Xanthine, 60 μM-Xanthine Oxidase, 0.009 units/ml) and a detector molecule (Cytochrome C, 27.8 μM). Upon reacting with a molecule of superoxide, Cytochrome C undergoes a spectrum-shift which can be detected as an increase in absorbance at 550 nm. In this assay procedure, the reactant concentrations were adjusted to give a reaction rate close to 0.1 AU/min. at 2-3 min. after the reaction began. Addition of compounds with Superoxide Dismutase activity reduce the rate of absorbance change. Compounds were assayed at several concentrations (typically at 0, 2, 4, and 8 μM) and the resulting rates were graphed and fitted to a linear regression formula. The linear regression formula was then solved to determine the concentration of compound required to reduce the reaction rate to 50% of the rate without compound present (IC50).

[6] = Catalase turnover assay, total hydrogen peroxide consumed before inactivation; format: biochemical; conditions: to completion, 15.8 μM compound, 1582 μM hydrogen peroxide, 5 mM Na phosphate pH 7.4
Description: as §1

[7] = system: CBA/J female mice, oxazolone-induced inflammatory ear edema; test: Delayed type hypersensitivity: oxazolone-induced ear edema; format: in vivo
Description: CBA/J female mice (Jackson Labs, Bar Harbor, ME) 7 weeks of age were pre-sensitized with 3% oxazolone (Sigma Chemical Co., St. Louis, Mo.) in 99.9% acetone, on the abdomen. After 8 days, the mice were challenged with 1.2% oxazolone topically on one ear to induce an inflammatory edema. Either Structural Formula V, Structural Formula IV at a dose of 7 nmoles/ear each, or ethanol, i.e. vehicle control (eight mice per study group), was applied topically to the ear immediately after the oxazolone challenge. Ear edema was measured by comparing the tissue water content (the wet weight minus the dry weight) of the challenged ear to that of the control ear. The percent edema (% water in the right ear-left ear) in the vehicle control was 6.5% and 2.1% and 3.9% for Structural Formula V and Structural Formula IV, respectively at a dose of 7 nmoles/ear.

Structure (SMILES)	CATALASE* Rate at 20 mins. [1]	S (single-strand breaks per DNA molecule) ([2]; KHSO5 10 μM)	form % I ([2]; KHSO5 10 μM)	form % II ([2]; KHSO5 10 μM)	form % III ([2]; KHSO5 10 μM)	S (single-strand breaks per DNA molecule) ([2]; without KHSO5)	form % I ([2]; without KHSO5)	form % II ([2]; without KHSO5)	form % III ([2]; without KHSO5)	times more active in DNA cleavage than Structural Formula V ([2]; same concentration (10 nM), with KHSO5, from experiments 6, 9 and 10)	PEROXIDASE Initial Rate [3]	oxidative DNA cleavage (literature statement) [4]	Cyt C SOD 1/(IC50, μM) [5]	CATALASE** H2O2 Consumption [6]	effect on edema compared to vehicle ([7]; 7 nmoles/ear topically)	percent edema (% water in the right ear-left ear) ([7]; 7 nmoles/ear topically immediately after oxazolone challenge, vehicle control 6.5%)
C[n+]1ccc(-c2c3nc(c(-c4cc[n+](C)cc4)c4ccc([n-]4)c(-c4cc[n+](C)cc4)c4nc(c(-c5cc[n+](C)cc5)c5ccc2[n-]5)C=C4)C=C3)cc1.[Mn+3] [MnTMPyP, 5, 10, 15, 20 meso-tetrakis(4-methylpyridiniumyl)porphyrinato-manganese (III), reference compound]	3.4 nmole H2O2/nmole Structural Formula compound	15.3 SSBs	1%	86%	13%	0.03 SSBs	90%	10%	0%	1527 times	0.0672 change in absorbance per min.	able to generate DNA damage at nanomolar concentrations	0.143 µM⁻¹	31.1 nmole H2O2/nmole Structural Formula compound	–	–
CC[NH+](CC)CCNS(=O)(=O)c1c(C)cc(C)c(C2=C3C=CC4=[N+]3[Mn-]35[n]6c2ccc6C(c2c(C)cc(C)c(S(=O)(=O)NCC[NH+](CC)CC)c2C)=C2C=CC(=[N+]23)C(c2c(C)cc(C)c(S(=O)(=O)NCC[NH+](CC)CC)c2C)=c2ccc([n]25)=C4c2c(C)cc(C)c(S(=O)(=O)NCC[NH+](CC)CC)c2C)c1C.[Cl-].[Cl-].[Cl-].[Cl-].[Cl-] [Structural Formula IV, meso-tetrakis[3-(N-(2-(N,N-diethylammonio)ethyl)aminosulfonyl)-2,4,6-trimethylphenyl]porphyrinato diaqua-manganese (III) pentachloride]	1.0 nmole H2O2/nmole Structural Formula compound	–	–	–	–	–	–	–	–	–	0.021 change in absorbance per min.	–	0.043 µM⁻¹	189.9 nmole H2O2/nmole Structural Formula compound	effective in reducing the percentage of edema	3.9%
